{
  "source": "patent US10857180B2",
  "about": "“Pharmaceutical composition for improving health, cure abnormalities and degenerative disease, achieve anti-aging effect of therapy and therapeutic effect on mammals and method thereof” (priority 2014, dated 2020)",
  "key": {"[1]": {"system": "Ehrlich ascites carcinoma (EAC)", "assay": "Ehrlich ascites carcinoma (EAC) mouse model", "format": "in vivo", "from_the_text": "10 male outbred mice (5 mice per group) at the age of 10 weeks, weighing 19-23 g were used in Ehrlich ascites carcinoma (EAC) model. Before the experiment, all the animals were healthy, with normal behavioral performance. During the experiment, the animals were kept in plastic cages under natural light illumination, on a standard diet with free access to food and water. An ascites strain of mouse breast cancer (EAC) maintained in outbred mice was used in the experiment. To inoculate the strain, the tumor cells derived from the ascitic fluid were placed in saline solution. The suspension cellularity was evaluated in the hemocytometer and adjusted to a concentration of 1×10^6 cells/ml with saline solution. The tumor was transplanted by injecting […] of the tumor cell suspension (0.25×10^6 cells/mouse) into the abdominal cavity of the animals.\nThe animals were divided into groups as follows: • Group No 1—control group, mice with EAC+solvent (deuterium-depleted water (this water contains deuterium at a level of 10 ppm)); • Group No 2−mice with EAC+^64Zne aspartate.\nThe solution comprising ^64Zne aspartate was injected intraperitoneally using a microinjection syringe at a dose of 0.075 mg (75 μg)/mouse every other day (5 times during 10 days) starting from the first day after injection in a volume of 0.5 ml/mouse. […] On the 13th day after i.p. inoculation of tumor cells, the whole ascites fluid was recovered from the animals and the total number of live/dead cells in each mouse was determined. Deuterium-depleted water alone was used instead of a solution of ^64Zne aspartate as control in the experiment.\nThe dynamics of formation of ascites in the control and experimental groups was assessed visually using a 10-point scale (one point was 0.46 cm of the mean diameter of the mouse abdomen filled with ascites).\nIn addition, on the 13th day after intraperitoneal inoculation of tumor cells, all ascetic fluid was removed from the abdomens in all animals from each group by washing their peritoneal cavities with saline solution and live and dead tumor cells were counted using the traditional vital dye trypan blue (HyClon, USA) and a hemocytometer.\nThe number of cells was determined using the following formula: X=((a)/80)×10^6, where X is the number of cells in 1 ml and a is the number of cells counted in 80 small squares of the hemocytometer."}, "HL-60 cells": {"system": "HL-60 cells", "assay": "Morphological and growth characteristics of HL-60 cells", "format": "cell-based, human", "conditions": "sulfates, living cell culture", "from_the_text": "However, articles about an important role of EMT in the study of lymphomas and leukemias as well have started coming out recently, which is an interesting stage in the research into the tumor process as a whole, since these tumors radically differ from “usual solid neoplasias” in their histogenesis and, accordingly, in their phenotypic characteristics. Thus, such comprehensive research into adhesion proteins and cell cytoskeleton in the tumor cells of Burkitt lymphoma and acute promyelocyte leukemia after the action of the group of components under study is a relevant and contemporary attempt of a deeper analysis of the modification of a cell phenotype of tumor cells in order to assess changes in the degree of their malignancy. Materials and methods for leukemia cell lines HL-60 and Namalva and cell culture conditions will now be described. […] The first plate was for coloring cells with trypan blue and the second one was for the MTT assay.\nAfter preparation of the corresponding concentrations of the components, they were introduced into appropriate wells of the plate in which HL-60 or Namalva cell were in complete medium. The volume of the culture medium with cells was 100 mcl per well and the concentration of cells in the suspension was 3×10^5 cells/ml (3×10^6/plate). […]"}, "[2]": {"system": "normal rat kidney cells (NRK cell line)", "assay": "Effect on normal rat kidney cells versus Doxorubicin", "from_the_text": "An immortalized cell line is a stable, capable of unlimited proliferation cell line that consists of cells with […] in culture."}, "[3]": {"system": "acute promyelocyte leukemia (HL-60 line) cells", "assay": "Immunocytochemical analysis (H-Score) of HL-60 cells", "format": "cell-based, human", "description": "Materials and methods for leukemia cell lines HL-60 and Namalva and cell culture conditions will now be described. Initial HL-60 and Namalva cells were cultured in complete RPMI 1640 medium (PAA) (PAA, Austria) supplemented with 10% fetal calf serum (PAA) and incubated in 5% CO2 humidified atmosphere at 37° C. The culture medium was replaced in 2 to 3 days and the cells were passaged in 4 to 5 days.\nIn carrying out the immunocytochemical (ICC) assay, cells on microscope glasses (cytospin preparations) were fixed in the solution (methanol+acetone (1:1)) for 2 hours at t−20° C. and then incubated with a 1% solution of bovine serum albumin (BSA) for 20 minutes.\nAfter the immunocytochemical reaction, the preparations were rinsed with water and counterstained with hematoxylin and eosin for 15 to 30 seconds. The results were analyzed by a quantitative estimation of cells with the marker expression (increased brown color of cells corresponded to a higher degree of expression of the marker) using a light microscope and assessed using the classical H-Score method: S=1×A+2×B+3×C, where S is the H-Score index the values of which are within the scope of 0 (protein is not detectable) to 300 (high-level expression in 100% of the cells), A is a percentage of weakly stained cells, B is the percentage of moderately stained cells, and C the percentage of strongly stained cells."}, "[4]": {"system": "human non-small cell lung cancer (line A-549) cells", "assay": "Immunocytochemistry (H-Score) of A-549 cells", "format": "cell-based", "protocol": "(§1) When making the immunocytochemistry (ICC) assay, cells on microscope glasses (cytospin preparations) were fixed in the solution (methanol+acetone 1:1) for 2 hours at t 20° C. and incubated with 1% solution of bovine serum albumin (BSA) for 20 minutes. Then the monoclonal antibodies-CD44 (Diagnostic BioSystems), E-cadherin (ThermoScientific), N-cadherin (NeoMarker, BioLegend), SLUG (GeneTex)—were applied for the time period specified by the manufacturer (30 to 60 minutes), after which the Poly Vue imaging system conjugated with peroxidase was used and the enzyme activity was detected using diaminobenzidine (ThermoScientific) as a substrate. After the immunocytochemical reaction the preparations were washed with water and counterstained with hematoxylin-eosin (for 15 to 30 seconds).\n(§2) The results were analyzed by counting cells with expression (brown colored cells) using a light microscope, and were assessed using the classical H-Score method: S=1×A+2×B+3×C, where S is the H-Score index giving a range of 0 (protein is not detected) to 300 (high-level expression in 100% of the cells); A is the percentage of weakly staining cells, B is the percentage of moderately staining cells and C is the percentage of strongly staining cells."}, "A-549 cell line": {"system": "A-549 cell line", "assay": "Cytogenetic analysis (micronucleus test) of A-549 cells", "format": "cell-based, human", "conditions": "for increase of cells with protrusions: A-549", "protocol": "Advanced Micronucleus Test was used to assess the cytogenetic characteristics of cells after their exposure to the action of the test group of components.\nCytogenetic analysis was carried out after 48 hours of exposure of the cells to the action of the components. For cytogenetic analysis, the cells were incubated in hypotonic solution KCl (0.54%) (Reahim, Ukraine) for 40 minutes at +37° C. Then they were fixed with a mixture of methyl alcohol (Reahim, Ukraine) and acetic acid (Himlaborreaktiv, Ukraine) (3:1) with replacing the fixative three times. All fixed cell suspensions were applied on cold wet glasses, dried and stained with Giemsa stain (Sigma, Germany). The cytogenetic preparations were analyzed using a binocular microscope Sari Zeiss, AxioStarPlus (Germany) with magnification of x 1000. The following quantitative characteristics and stages of cell division were analyzed on the preparations: mitoses, cells with premature chromosome condensation (PCC), cells with micronuclei (CMN), apoptotic cells and cells with nuclear protrusions (protrusions) which were calculated for 1000 cells and expressed in per mille (%)."}, "[5]": {"system": "normal rat kidney cells (NRK line)", "assay": "Immunocytochemistry of NRK cells", "format": "cell-based", "protocol": "as §1, §2"}, "[6]": {"system": "human melanoma tumor cells (MM-4 cell line)", "assay": "Scratch assay, MM-4 cells", "format": "cell-based", "conditions": "^64Zn 15 mcg/ml; 48 hours in control", "description": "The cells of A-549, A-431, NRK, HaCaT, MM-4, normal fibroblasts (derived from the Bank of Cell Lines from human and animal tissues, R. E. Kavetsky Institute of Experimental Pathology, Oncology and Radiobiology, National Academy of Sciences of Ukraine) were cultured in complete culture medium RPMI 1640/DMEM (PAA, Austria) (depending on the cell type) supplemented with 10% fetal calf serum (PAA, Austria) and incubated in 5% CO2 humidified atmosphere at 37° C. The culture medium was replaced in 2 to 3 days and the cells were passaged in 4 to 5 days.\nAnalysis of the influence of the components under study on the cell migration rate was performed using the scratch assay method. […]\nThe plate was incubated in a CO2 incubator for additional 48 hours. After the cells formed a dense monolayer it was damaged (by making a “scratch”) and the growth medium was replaced to remove cell debris and smooth the edges of the “scratch.” The rate of cell migration was analyzed using an inverted microscope and by photographing cells in the area of injury. The migration activity of cells was fixed at several time points (depending on the cell line analyzed). The microphotomicrographs were analyzed and the cell incubation time needed to restore the monolayer was determined for all experimental groups. […]"}},
  "note": "Marks after values point to notes of the source that are not given here.",
  "data": [
    {"smiles": "NC(CC(=O)[O-])C(=O)[O-].[64Zn+2]", "note": "(racemic) [^64Zne aspartate, ^64Zn aspartate (racemic)]", "values": [
      {"measurement": "suppression of growth of Ehrlich ascites carcinoma", "setting": "[1]; after 5 injections", "value": 100, "unit": "%"},
      {"measurement": "Volume of ascites in mice", "setting": "[1]; day 7 after inoculation, 75 μg/mouse i.p. every other day x5", "value": "0* points"},
      {"measurement": "Volume of ascites in mice", "setting": "[1]; day 9, 75 μg/mouse i.p. x5", "value": "0** points"},
      {"measurement": "Volume of ascites in mice", "setting": "[1]; day 11, 75 μg/mouse i.p. x5", "value": "0* points"},
      {"measurement": "Number of dead cells/mouse", "setting": "[1]; day 13, 75 μg/mouse i.p.", "value": 0},
      {"measurement": "Number of live cells/mouse (M ± m)", "setting": "[1]; day 13, 75 μg/mouse i.p.", "value": "0* cells/mouse"},
      {"measurement": "Volume of ascites (M ± m)", "setting": "[1]; day 13, 75 μg/mouse i.p.", "value": "0* ml/mouse"},
      {"measurement": "Volume of ascites in mice", "setting": "[1]; day 13, 75 μg/mouse i.p. x5", "value": "0** points"}
    ]},
    {"smiles": "O=S(=O)([O-])[O-].[24Mg+2]", "note": "[^24Mg]", "values": [
      {"measurement": "morphological and growth characteristics (adhesion)", "setting": "HL-60 cells", "value": "significant enhancement of adhesion of cells to the substrate"},
      {"measurement": "effect on functional properties of NRK cells", "setting": "[2]", "value": "did not affect functional properties"}
    ]},
    {"smiles": "[39K+].[Cl-]", "note": "[^39K]", "values": [
      {"measurement": "amount of N-cadherin-positive cells", "setting": "[3]", "value": "in most cases increased"},
      {"measurement": "number of cells expressing ICAM", "setting": "[3]; ^39K 2 and 0.5 mg/ml, ^64Zn 10 mcg/ml", "value": "reduction in the number of cells"},
      {"measurement": "level of expression of CD44", "setting": "[3]; especially in high doses", "value": "tendency to decrease in the level of expression"},
      {"measurement": "number of slug-positive cells with nuclear expression", "setting": "[4]", "value": "significantly decreased"},
      {"measurement": "number of cells with E-cadherin", "setting": "[4]; dose of IC50", "value": "inhibition"},
      {"measurement": "increase of cells with protrusions", "setting": "A-549 cell line", "value": 15, "unit": "fold"}
    ]},
    {"smiles": "O=S(=O)([O-])[O-].[64Zn+2]", "note": "[^64Zn]", "values": [
      {"measurement": "morphological and growth characteristics (adhesion)", "setting": "HL-60 cells", "value": "significant enhancement of adhesion of cells to the substrate"},
      {"measurement": "slug-positive cells with cytoplasmic expression", "setting": "[4]", "value": "decrease"},
      {"measurement": "phenotype of normal cells", "setting": "[5]", "value": "has not changed"},
      {"measurement": "increase of cells with protrusions", "setting": "A-549 cell line", "value": "~10", "unit": "fold"},
      {"measurement": "level of nuclear abnormalities vs control", "setting": "A-549 cell line; ^64Zn 20 mcg/ml, 48 hours", "value": "fifty times as high as the baseline"},
      {"measurement": "level of nuclear abnormalities vs dose of 10 mcg/ml", "setting": "A-549 cell line; ^64Zn 20 mcg/ml, 48 hours", "value": "triple increase"},
      {"measurement": "effect on functional properties of NRK cells", "setting": "[2]", "value": "did not affect functional properties"},
      {"measurement": "time of the gap closing", "setting": "[6]", "value": 72, "unit": "h"}
    ]}
  ]
}
